The target in this experiment is T1, BTK (Homo sapiens, UniProt Q06187).
T1 construct: purchased Upstate 14-552
The experiment in a line: In vitro BTK kinase assay (BTK-POLYGAT-LS). The class given is biochemical. Conditions: IC50 (10 uM ATP). As to the method:
In vitro BTK Kinase Assay
The purpose of the BTK in vitro assay is to determine compound potency against BTK through the measurement of IC50. […] For a typical assay, a 24 μL aliquot of a ATP/peptide master mix (final concentration; ATP 10 μM, polyGAT 100 nM) in kinase buffer (10 mM Tris-HCl pH 7.5, 10 mM MgCl2, 200 μM Na3PO4, 5 mM DTT, 0.01% Triton X-100, and 0.2 mg/ml casein) is added to each well. […] The assay is incubated for 30 minutes before being stopped with 28 μL of a 50 mM EDTA solution. […] The plate is covered and incubated for 45 minutes at room temperature.

The structures appear in SMILES notation.

T1 sequence (Q06187 whole entry): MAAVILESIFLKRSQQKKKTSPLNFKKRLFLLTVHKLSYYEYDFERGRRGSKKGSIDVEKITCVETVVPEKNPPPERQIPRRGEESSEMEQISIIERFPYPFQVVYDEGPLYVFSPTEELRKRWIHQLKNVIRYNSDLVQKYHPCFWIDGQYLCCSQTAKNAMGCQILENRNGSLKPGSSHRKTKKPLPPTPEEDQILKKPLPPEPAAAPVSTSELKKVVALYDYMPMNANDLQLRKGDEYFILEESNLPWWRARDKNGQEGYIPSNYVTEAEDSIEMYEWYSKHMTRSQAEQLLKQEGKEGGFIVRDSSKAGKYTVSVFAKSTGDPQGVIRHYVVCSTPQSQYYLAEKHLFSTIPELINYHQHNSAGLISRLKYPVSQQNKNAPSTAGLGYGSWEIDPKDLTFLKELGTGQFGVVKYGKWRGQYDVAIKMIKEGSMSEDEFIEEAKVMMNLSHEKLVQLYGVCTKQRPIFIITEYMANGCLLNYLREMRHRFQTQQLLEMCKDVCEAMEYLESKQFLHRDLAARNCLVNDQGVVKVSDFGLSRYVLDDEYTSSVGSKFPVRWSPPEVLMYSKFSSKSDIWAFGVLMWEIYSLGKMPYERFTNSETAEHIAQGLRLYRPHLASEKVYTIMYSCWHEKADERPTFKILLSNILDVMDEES

The compound `CN(c1ncnc2[nH]ccc12)C1CCCN(C(=O)CNc2cc(Cl)cc(Cl)c2)C1C(F)(F)F` (stereo not drawn) [Compound 14] gave an IC50 of under 100 nM.

In turn, `CC1CC2CCN(C(=O)CNc3cc(Cl)cc(Cl)c3)CC2N1c1ncnc2[nH]ccc12` (stereo not drawn) [Compound 74] gave an IC50 of under 100 nM.

As for `O=C(CNc1cc(Cl)cc(Cl)c1)N1CCC[C@@H](Nc2ncnc3[nH]ccc23)[C@H]1C(F)(F)F` [Compound 12], the IC50 is under 100 nM.

`CC1CCCCC1NCC(=O)N1CCC[C@H](Nc2ncnc3[nH]ccc23)C1` (stereo partly drawn) [Compound 140]: the IC50 is over 10000 nM.

`CC(=O)Nc1cc(N[C@H]2CCCN(C(=O)CNc3cc(Cl)cc(Cl)c3)C2)ncn1` [Compound 109] yielded an IC50 of over 10000 nM.

Take `CC1C2C(CCN1C(=O)CNc1cc(Cl)cc(Cl)c1)CCN2c1ncnc2[nH]ccc12` (stereo not drawn) [Compound 57]: the IC50 was under 100 nM.

Turning to `CC(C)CN(CC(C)C)S(=O)(=O)c1ccccc1NCC(=O)N1CCC[C@H](Nc2ncnc3[nH]ccc23)C1` [Compound 219], the IC50 is over 10000 nM.

Take `CN(c1ncnc2c1CCC(=O)N2)[C@H]1CCCN(C(=O)CNc2cc(Cl)cc(Cl)c2)C1` [Compound 129]: the IC50 is over 10000 nM.

Compound `CC1C(Nc2ncnc3[nH]ncc23)CCCN1C(=O)[C@@H](C)Nc1cc(Cl)cc(Cl)c1` (stereo partly drawn) [Compound 60] returned an IC50 of under 100 nM.

Consider `O=C(CNc1ccc(C(F)(F)F)cc1)N1CCC[C@H](Nc2ncnc3[nH]ccc23)C1` [Compound 204], for which the IC50 was over 10000 nM.

Consider `Nc1cc(N2CCC3CCN(C(=O)CNc4cc(Cl)cc(Cl)c4)CC32)ncn1` (stereo not drawn) [Compound 159], for which the IC50 is under 100 nM.

Consider `NC(=O)c1cnc2[nH]ccc2c1N[C@@H]1CCCN(C(=O)CNc2cc(Cl)cc(Cl)c2)[C@@H]1C(F)(F)F` [Compound 227], for which the IC50 is under 100 nM.

In turn, `CN(c1ncnc2[nH]ccc12)[C@H]1CCN(C(=O)CNc2cc(Cl)cc(Cl)c2)C1` [Compound 132] had an IC50 of over 10000 nM.

Compound `O=C(CNc1ccc(F)c(Cl)c1)N1CCC2CCN(c3ncnc4[nH]ccc34)C2C1` (stereo not drawn) [Compound 77] yielded an IC50 of under 100 nM.

In the case of `O=C(CNc1cc(Cl)cc(Cl)c1)N1CCC[C@H](Nc2ncnc3scnc23)C1` [Compound 115], the IC50 is over 10000 nM.

On to `O=C(CNc1cc(Cl)cc(Cl)c1)N1CCC[C@H](Nc2cc(Br)ncc2[N+](=O)[O-])C1` [Compound 136], for which the IC50 was over 10000 nM.

In turn, `CN(c1ncnc2[nH]ccc12)[C@@H]1CCCN(C(=O)CNc2cc(F)cc(Cl)c2)C1` [Compound 165] showed an IC50 of 100 to 999 nM.

The compound `O=C(CNc1cc(Cl)cc(Cl)c1)N1CCC[C@H](Nc2ncnc3[nH]cnc23)C1` [Compound 175] gave an IC50 of 100 to 999 nM.

As to `O=C(CNc1cc(Cl)cc(Cl)c1)N1CCC[C@@H](Nc2c(-c3ccc(C(=O)N4CCOCC4)cc3)cnc3[nH]ccc23)C1` [Compound 3], the IC50 is under 100 nM.

With `O=C(CNC1CCCC1)N1CCC[C@H](Nc2ncnc3[nH]ccc23)C1` [Compound 149], the IC50 is over 10000 nM.

Consider `CCC1CC2CCN(C(=O)CNc3cc(Cl)cc(Cl)c3)CC2N1c1ncnc2[nH]ccc12` (stereo not drawn) [Compound 42], for which the IC50 is under 100 nM.

Regarding `Nc1nc(N[C@H]2CCCN(C(=O)CNc3cc(Cl)cc(Cl)c3)C2)c2cc[nH]c2n1` [Compound 157], the IC50 was over 10000 nM.

In the case of `CC1C(Nc2ncnc3[nH]ncc23)CCCN1C(=O)CNc1ccccc1S(=O)(=O)C1CCCC1` (stereo not drawn) [Compound 69], the IC50 is under 100 nM.

For `CC1C(Nc2ncnc3[nH]ncc23)CCCN1C(=O)CNc1cc(F)cc(Cl)c1` (stereo not drawn) [Compound 68], the IC50 is under 100 nM.

`O=C(CNc1ccc(F)cc1)N1CCC[C@H](Nc2ncnc3[nH]ccc23)C1` [Compound 193] returned an IC50 of over 10000 nM.

Turning to `O=C(CNc1cc(Cl)cc(Cl)c1)N1CC2CC(Nc3ncnc4[nH]ncc34)C1C2` (stereo not drawn) [Compound 171], the IC50 was under 100 nM.

Regarding `O=CNc1cnc(Br)cc1N(C=O)[C@H]1CCCN(C(=O)CNc2cc(Cl)cc(Cl)c2)C1` [Compound 120], the IC50 was over 10000 nM.

For the compound `O=C(CNc1cc(Cl)cc(Cl)c1)N1CCC[C@@H](N(CCO)c2ncnc3[nH]ccc23)C1` [Compound 35], the IC50 was under 100 nM.

`CN1CCN(C(=O)c2ccc(-c3cnc4[nH]ccc4c3N[C@H]3CCCN(C(=O)CNc4cc(Cl)cc(Cl)c4)C3)cc2)CC1` [Compound 1] gave a 50% inhibitory concentration (IC50) of under 100 nM.

Consider `CN(c1ncnc2[nH]ccc12)C1CCCN(C(=O)CNc2cc(F)cc(Cl)c2)C1C(F)(F)F` (stereo not drawn) [Compound 9], for which the IC50 was under 100 nM.

On to `CN(c1ncnc2[nH]ccc12)C1CCCN(C(=O)CNc2cc(Cl)cc(C(F)(F)F)c2)C1C(F)(F)F` (stereo not drawn) [Compound 13], for which the IC50 was under 100 nM.

`CCC1C(Nc2ncnc3[nH]ncc23)CCCN1C(=O)CNc1cc(F)cc(Cl)c1` (stereo not drawn) [Compound 4] registered an IC50 of under 100 nM.

`Nc1ncnc2c1ncn2C1CCCN(C(=O)CNc2cc(Cl)cc(Cl)c2)C1` (stereo not drawn) [Compound 233]: the IC50 is over 10000 nM.

In the case of `C[C@H]1[C@@H](Nc2ncnc3[nH]ncc23)CCCN1C(=O)CNc1cc(Cl)cc(Cl)c1` [Compound 31], the IC50 is under 100 nM.

For `O=C(CNc1cccc(Cl)c1)N1CCCC(Nc2ncnc3[nH]ccc23)C1C(F)(F)F` (stereo not drawn) [Compound 20], the IC50 is under 100 nM.

`O=C(CNc1cc(C(F)(F)F)cc(C(F)(F)F)c1)N1CCC[C@H](Nc2ncnc3[nH]ncc23)C1` [Compound 185] gave an IC50 of 1000 to 10000 nM.

`C[C@@H]1C[C@H](N(C)c2ncnc3[nH]ccc23)CN(C(=O)CNc2cc(Cl)cc(Cl)c2)C1` [Compound 98] yielded an IC50 of under 100 nM.

Turning to `O=C(CNc1ccccc1F)N1CCC[C@H](Nc2ncnc3[nH]ccc23)C1` [Compound 194], the IC50 was over 10000 nM.

On to `O=C(CNc1ccccc1S(=O)(=O)N1CCCCC1)N1CCC[C@@H](Nc2ncnc3[nH]ccc23)C1` [Compound 221], for which the IC50 lay in the range of 100 to 999 nM.

`C[C@@H](Nc1cc(Cl)cc(Cl)c1)C(=O)N1CCC[C@H](Nc2ncnc3[nH]ccc23)C1` [Compound 208]: the IC50 lay within 100 to 999 nM.

In turn, `Nc1ncnc(N2CCC3CCN(C(=O)CNc4cc(Cl)cc(Cl)c4)CC32)c1F` (stereo not drawn) [Compound 112] yielded an IC50 of under 100 nM.

`NC(=O)c1cnc2[nH]ccc2c1NC1CCCN(C(=O)CNc2cc(Cl)cc(Cl)c2)C1C(F)(F)F` (stereo not drawn) [Compound 228] displayed an IC50 of under 100 nM.

`CN(c1ncnc2[nH]ncc12)[C@H]1CCN(C(=O)CNc2cc(Cl)cc(Cl)c2)C1` [Compound 130] showed an IC50 of over 10000 nM.

For the compound `O=C(CNc1cc(Cl)cc(Cl)c1)N1CC[C@H](Nc2ncnc3[nH]ncc23)C1` [Compound 147], the IC50 was over 10000 nM.

`CC1C(Nc2ncnc3[nH]ccc23)CCCN1C(=O)[C@H](Nc1cc(Cl)cc(Cl)c1)C1CC1` (stereo partly drawn) [Compound 51] had an IC50 of 100 to 999 nM.

As to `O=C(CNc1cc(Cl)cc(Cl)c1)N1CCCC(N(CCN2CCCCC2)c2ncnc3[nH]ccc23)C1` (stereo not drawn) [Compound 88], the IC50 was in the range of 1000 to 10000 nM.

On to `C[C@@H]1C[C@H](Nc2ncnc3[nH]ncc23)CN(C(=O)CNc2cc(Cl)cc(Cl)c2)C1` [Compound 103], for which the IC50 is under 100 nM.

`O=C(CNc1cccc(F)c1)N1CCC[C@H](Nc2ncnc3[nH]ccc23)C1` [Compound 188]: the IC50 was in the range of 1000 to 10000 nM.

`CN(c1ncnc2[nH]ccc12)[C@@H]1CCCN(C(=O)CNc2cc(C(F)(F)F)cc(C(F)(F)F)c2)C1` [Compound 166] returned an IC50 of over 10000 nM.

`CC[C@@H](Nc1cc(Cl)cc(Cl)c1)C(=O)N1CCCC(Nc2ncnc3[nH]ccc23)C1C` (stereo partly drawn) [Compound 72]: the IC50 was under 100 nM.

`CN1CCN(C(=O)c2cnc3[nH]ccc3c2N[C@@H]2CCCN(C(=O)CNc3cc(Cl)cc(Cl)c3)C2)CC1` [Compound 230] showed an IC50 of 100 to 999 nM.

Consider `O=C(CNc1ccc(Cl)cc1)N1CCC[C@H](Nc2ncnc3[nH]ncc23)C1` [Compound 184], for which the IC50 was over 10000 nM.

Turning to `O=C(Nc1cc(Cl)cc(Cl)c1)C(=O)N1CCCC(Nc2ncnc3[nH]ccc23)C1` (stereo not drawn) [Compound 225], the IC50 was over 10000 nM.

With `O=C(CNc1cc(Cl)cc(Cl)c1)N1CCC[C@@H](Nc2ncnc3[nH]cc(F)c23)C1` [Compound 6], the IC50 is 100 to 999 nM.

Turning to `O=C(CNc1cc(Cl)cc(Cl)c1)N1CCCC(N(CCN2CCCC2)c2ncnc3[nH]ccc23)C1` (stereo not drawn) [Compound 54], the concentration for half-maximal inhibition (IC50) lay in the range of 1000 to 10000 nM.

Consider `CN(c1ncnc2[nH]ncc12)[C@@H]1CCN(C(=O)CNc2cc(Cl)cc(Cl)c2)C1` [Compound 131], for which the IC50 was in the range of 1000 to 10000 nM.

With `CCn1cnc2cnc(N[C@H]3CCCN(C(=O)CNc4cc(Cl)cc(Cl)c4)C3)cc21` [Compound 158], the IC50 was over 10000 nM.

`C[C@@H]1C[C@H]2CCN(C(=O)CNc3cc(Cl)cc(Cl)c3)C[C@H]2N1c1ncnc2[nH]ccc12` [Compound 47] registered an IC50 of under 100 nM.

In turn, `C[C@@H]1[C@@H](Nc2ncnc3[nH]ncc23)CCCN1C(=O)CNc1cc(F)cc(Cl)c1` [Compound 24] had an IC50 of 1000 to 10000 nM.

As to `O=C(CNc1cc(C(F)(F)F)cc(C(F)(F)F)c1)N1CCC[C@H](Nc2ncnc3[nH]ncc23)C1` [Compound 186], the IC50 was over 10000 nM.

For the compound `N#Cc1c(N)ncnc1N[C@H]1CCCN(C(=O)CNc2cc(Cl)cc(Cl)c2)C1` [Compound 161], the 50% inhibitory concentration (IC50) was over 10000 nM.

Turning to `CN(c1ncnc2[nH]ncc12)C1CC2CC1N(C(=O)CNc1cc(Cl)cc(Cl)c1)C2` (stereo not drawn) [Compound 141], the IC50 was in the range of 100 to 999 nM.

In turn, `CN(c1ncnc(N)c1C(N)=O)[C@H]1CCCN(C(=O)CNc2cc(Cl)cc(Cl)c2)C1` [Compound 125] showed an IC50 of over 10000 nM.

As to `CC1C(Nc2ncnc3[nH]ncc23)CCCN1C(=O)CNc1ccccc1S(=O)(=O)N1CCCC1` (stereo not drawn) [Compound 70], the concentration for half-maximal inhibition (IC50) was under 100 nM.

The compound `CCC[C@@H](Nc1cc(Cl)cc(Cl)c1)C(=O)N1CCC2CCN(c3ncnc4[nH]ccc34)C2C1` (stereo partly drawn) [Compound 101] displayed an IC50 of under 100 nM.

With `CC1C(Nc2ncnc3[nH]ncc23)CCCN1C(=O)CNc1ccccc1S(=O)(=O)c1ccccc1` (stereo not drawn) [Compound 63], the IC50 is under 100 nM.

Broadly, the IC50 is the concentration that gives 50% inhibition. Read a high IC50 as weaker potency in that assay.

The record behind these values is patent US9273028B2, “Heterocyclic tyrosine kinase inhibitors” (Biogen MA Inc., priority 2010, dated 2016).
